From publication PMC12122562, “Phase 1 studies of the indenoisoquinolines LMP776 and LMP744 in patients with solid tumors and lymphomas” (Cancer Chemotherapy and Pharmacology, 2025)
Entries after “also recorded” stand apart in the source; their conditions may differ.

Test system: patients with advanced, refractory solid tumors or lymphomas
Experiment: Phase 1 trial of LMP776 (NCT01051635): safety, MTD, adverse events (CTCAE v4.0)
Type: in vivo
From the text: The primary objectives of each study included establishing safety, tolerability, MTD, and recommended phase 2 dose (RP2D) of LMP776 and LMP744 as single agents. The LMP744 study included evaluation of tumor pharmacodynamics as an exploratory objective. Both trials were opened at the National Cancer Institute’s (NCI) Developmental Therapeutics Clinic, and the LMP744 trial was also opened at the University of Pittsburgh Hillman Cancer Center. Both trials used an accelerated dose escalation designs (Simon design 4 for LMP776, Simon design 3 for LMP744) to determine the MTD [30]. Dose levels are listed in Supplementary Table 1. Once the MTD was determined, additional patients were enrolled at that DL in an expansion cohort to evaluate pharmacodynamic changes as described below. LMP776 and LMP744 were administered intravenously through a central line via a 1-h infusion on days 1–5 (QDx5) in 28-day cycles. Both agents were supplied by the NCI Division of Cancer Treatment and Diagnosis (DCTD). The studies were approved by the NIH Institutional Review Board and conducted in accordance with the Declaration of Helsinki.
Patients were enrolled in either NCT01051635 evaluating LMP776 or NCT03030417 evaluating LMP744; these trials were conducted sequentially. Both trials required that patients be ≥ 18 years of age with solid tumors or lymphomas refractory to other treatments. Patients were required to have adequate performance status (Eastern Cooperative Oncology Group [ECOG] performance status ≤ 2), bone marrow function, and organ function as described in the Supplementary Methods. Patients in expansion phases at the MTD were required to have disease amenable to biopsy collection and be willing to undergo research biopsies. All patients provided written informed consent.
Tumor responses were evaluated by serial CT scans according to RECIST v1.1 criteria. CT scans were performed every other cycle during the first year, then every 3 cycles after the first year. […] Criteria for all versions can be found at https://ctep.cancer.gov/protocolDevelopment/electronic_applications/ctc.htm. Any patient who received a dose of either agent was considered eligible for toxicity evaluation.

[1] = all DLs, highest grade per patient
[2] = grade 2, DL1-DL2 (n = 8; suppl. DL2, n=7)

## COc1cc2c3c(n(CCCn4ccnc4)c(=O)c2cc1OC)-c1cc2c(cc1C3=O)OCO2 [LMP776]
DL8 (16 mg/m^2/day), one patient each
  Grade 3 non-hematologic toxicities: hypokalemia, hyponatremia, and hypophosphatemia
IV QDx5, 28-day cycles (DL7)
  Maximum tolerated dose (MTD): 12 mg/m^2/day
Across all DLs
  Anemia, grade ≥ 2, prevalence: 50%
  Lymphopenia, grade ≥ 2, prevalence: 38%
  Thrombocytopenia, grade ≥ 2, prevalence: 18%
All DLs
  Alkaline phosphatase increased, grade ≥ 2, Total (%): 1 (3)
  Aspartate aminotransferase increased, grade ≥ 2, Total (%): 2 (6)
  Dehydration, grade ≥ 2, Total (%): 2 (6)
  Diarrhea, grade ≥ 2, Total (%): 1 (3)
  Dysgeusia, grade ≥ 2, Total (%): 2 (6)
  Fatigue, grade ≥ 2, Total (%): 3 (9)
  Hypercalcemia, grade ≥ 2, Total (%): 1 (3)
  Hypoalbuminemia, grade ≥ 2, Total (%): 3 (9)
  Hypoglycemia, grade ≥ 2, Total (%): 1 (3)
  Hypokalemia, grade ≥ 2, Total (%): 1 (3)
  Hypomagnesemia, grade ≥ 2, Total (%): 1 (3)
  Hyponatremia, grade ≥ 2, Total (%): 2 (6)
  Hypothyroidism, grade ≥ 2, Total (%): 1 (3)
  Mucositis - oral, grade ≥ 2, Total (%): 1 (3)
  Nausea, grade ≥ 2, Total (%): 2 (6)
  Vomiting, grade ≥ 2, Total (%): 1 (3)
  White blood cell decreased, grade ≥ 2, Total (%): 3 (9)
[1]
  Anemia, grade ≥ 2, Total (%): 17 (50)
  Hypophosphatemia, grade ≥ 2, Total (%): 4 (12)
  Lymphopenia (Lymphocyte count decreased), grade ≥ 2, Total (%): 13 (38)
  Neutropenia, grade ≥ 2, Total (%): 5 (15)
  Thrombocytopenia (Platelet count decreased), grade ≥ 2, Total (%): 6 (18)
Enrolled at DL8
  Patients requiring a dose reduction: One
[2]
  Anemia, patients: 5
  Hypophosphatemia, patients: 1
  Lymphopenia (Lymphocyte count decreased), patients: 2
Grade 2, DL2
  Hypoalbuminemia, patients: 1
Grade 2, DL3-DL4
  Lymphopenia (Lymphocyte count decreased), patients: 1
Grade 2, DL3-DL4 (n = 6)
  Anemia, patients: 2
Grade 2, DL5-DL6
  Dehydration, patients: 1
  Diarrhea, patients: 1
  Fatigue, patients: 1
  Neutropenia, patients: 1
Grade 2, DL5-DL6 (n = 6)
  Anemia, patients: 3
Grade 2, DL7
  Aspartate aminotransferase increased, patients: 1
  Hypophosphatemia, patients: 1
Grade 2, DL7 (n = 7)
  Anemia, patients: 1
Grade 2, DL8
  Aspartate aminotransferase increased, patients: 1
  Dehydration, patients: 1
  Dysgeusia, patients: 2
  Fatigue, patients: 2
  Hypoalbuminemia, patients: 2
  Hypomagnesemia, patients: 1
  Hypophosphatemia, patients: 1
  Hypothyroidism, patients: 1
  Nausea, patients: 2
  Neutropenia, patients: 1
  Thrombocytopenia (Platelet count decreased), patients: 1
  Vomiting, patients: 1
  White blood cell decreased, patients: 1
Grade 2, all DLs (n=34)
  Anemia, patients: 11
  Aspartate aminotransferase increased, patients: 2
  Dehydration, patients: 2
  Diarrhea, patients: 1
  Dysgeusia, patients: 2
  Fatigue, patients: 3
  Hypercalcemia, patients: 1
  Hypoalbuminemia, patients: 3
  Hypomagnesemia, patients: 1
  Hyponatremia, patients: 2
  Hypophosphatemia, patients: 3
  Hypothyroidism, patients: 1
  Lymphocyte count decreased, patients: 3
  Nausea, patients: 2
  Neutropenia, patients: 2
  Platelet count decreased, patients: 1
  Vomiting, patients: 1
  White blood cell count decreased, patients: 1
Grade 3, DL2
  Hypoglycemia, patients: 1
Grade 3, DL3-DL4
  Lymphopenia (Lymphocyte count decreased), patients: 2
Grade 3, DL3-DL4 (n = 6)
  Anemia, patients: 1
Grade 3, DL5-DL6
  Lymphopenia (Lymphocyte count decreased), patients: 1
Grade 3, DL7
  Alkaline phosphatase increased, patients: 1
  Hyponatremia, patients: 1
  Lymphopenia (Lymphocyte count decreased), patients: 2
  Mucositis - oral, patients: 1
  Thrombocytopenia (Platelet count decreased), patients: 1
Grade 3, DL7 (n = 7)
  Anemia, patients: 1
Grade 3, DL8
  Hypokalemia, patients: 1
  Hyponatremia, patients: 1
  Hypophosphatemia, patients: 1
  Lymphopenia (Lymphocyte count decreased), patients: 3
  Neutropenia, patients: 2
  Thrombocytopenia (Platelet count decreased), patients: 3
  White blood cell decreased, patients: 1
Grade 3, DL8 (n = 7)
  Anemia, patients: 4
Grade 3, all DLs (n=34)
  Alkaline phosphatase increased, patients: 1
  Anemia, patients: 6
  Hypoglycemia, patients: 1
  Hypokalemia, patients: 1
  Lymphocyte count decreased, patients: 8
  Mucositis - oral, patients: 1
  Neutropenia, patients: 2
  Platelet count decreased, patients: 3
  White blood cell count decreased, patients: 1
Grade 4, DL2
  Hypercalcemia, patients: 1
Grade 4, DL8
  Lymphopenia (Lymphocyte count decreased), patients: 2
  Neutropenia, patients: 1
  Thrombocytopenia (Platelet count decreased), patients: 1
  White blood cell decreased, patients: 1
Grade 4, all DLs (n=34)
  Lymphocyte count decreased, patients: 2
  Neutropenia, patients: 1
  Platelet count decreased, patients: 1
  White blood cell count decreased, patients: 1
In vivo
  Dose-limiting toxicities (DLTs): hypercalcemia, anemia, and hyponatremia; also recorded: Hypercalcemia and hyponatremia were dose-limiting
  Nausea, prevalence: 6%
